One test deals with T1, CDK9/CycT1 (Homo sapiens, UniProt P50750).
T1 construct: Recombinant full-length His-tagged human CDK9 and CycT1; His; purchased Invitrogen PV4131; host or cells: insect cells
Put plainly: CDK9/CycT1 kinase assay (TR-FRET, Method 1a). Type of test: biochemical. The conditions noted are these: for IC50: Method 1a, 10 μM ATP; for Selectivity CDK9 over CDK2: IC50 (CDK2)/IC50 (CDK9): Methods 1a and 2a, minimal values where CDK9 IC50 is at the assay limit. The source says: 1a. CDK9/CycT1 Kinase Assay:
CDK9/CycT1-inhibitory activity of compounds of the present invention was quantified employing the CDK9/CycT1 TR-FRET assay as described in the following paragraphs:
(§1) Recombinant full-length His-tagged human CDK9 and CycT1, expressed in insect cells and purified by Ni-NTA affinity chromatography, were purchased from Invitrogen (Cat. No PV4131). As substrate for the kinase reaction biotinylated peptide biotin-Ttds-YISPLKSPYKISEG (C-terminus in amid form) was used which can be purchased e.g. from the company JERINI Peptide Technologies (Berlin, Germany). For the assay 50 nl of a 100 fold concentrated solution of the test compound in DMSO was pipetted into a black low volume 384 well microtiter plate (Greiner Bio-One, Frickenhausen, Germany), 2 μl of a solution of CDK9/CycT1 in aqueous assay buffer [50 mM Tris/HCl pH 8.0, 10 mM MgCl2, 1.0 mM dithiothreitol, 0.1 mM sodium ortho-vanadate, 0.01% (v/v) Nonidet-P40 (Sigma)] were added and the mixture was incubated for 15 min at 22° C. to allow pre-binding of the test compounds to the enzyme before the start of the kinase reaction. […] The concentration of CDK9/CycT1 was adjusted depending of the activity of the enzyme lot and was chosen appropriate to have the assay in the linear range, typical concentrations were in the range of 1 μg/mL. The reaction was stopped by the addition of 5 μl of a solution of TR-FRET detection reagents (0.2 μM streptavidine-XL665 [Cisbio Bioassays, Codolet, France] and 1 nM anti-RB(pSer807/pSer811)-antibody from BD Pharmingen [#558389] and 1.2 nM LANCE EU-W1024 labeled anti-mouse IgG antibody [Perkin-Elmer, product no. AD0077]) in an aqueous EDTA-solution (100 mM EDTA, 0.2% (w/v) bovine serum albumin in 100 mM HEPES pH 7.5).
(§2) The resulting mixture was incubated 1 h at 22° C. to allow the formation of complex between the phosphorylated biotinylated peptide and the detection reagents. Subsequently the amount of phosphorylated substrate was evaluated by measurement of the resonance energy transfer from the Eu-chelate to the streptavidine-XL. Therefore, the fluorescence emissions at 620 nm and 665 nm after excitation at 350 nm was measured in a HTRF reader, e.g. a Rubystar (BMG Labtechnologies, Offenburg, Germany) or a Viewlux (Perkin-Elmer). The ratio of the emissions at 665 nm and at […] was taken as the measure for the amount of phosphorylated substrate. The data were normalised (enzyme reaction without inhibitor=0% inhibition, all other assay components but no enzyme=100% inhibition).
(In general: In TR-FRET formats the signal depends on donor and acceptor labels being close together.)

For another test, the target named is T2, CDK2/CycE (Homo sapiens, UniProt P24941).
T2 construct: GST; purchased ProQinase GmbH (Freiburg, Germany); host or cells: insect cells (Sf9)
Put plainly: CDK2/CycE kinase assay (TR-FRET, Method 2a). Type of test: biochemical. The conditions noted are these: 10 μM ATP.
Source text: 2a. CDK2/CycE Kinase Assay:
CDK2/CycE-inhibitory activity of compounds of the present invention was quantified employing the CDK2/CycE TR-FRET assay as described in the following paragraphs:
Recombinant fusion proteins of GST and human CDK2 and of GST and human CycE, expressed in insect cells (Sf9) and purified by Glutathion-Sepharose affinity chromatography, were purchased from ProQinase GmbH (Freiburg, Germany). As substrate for the kinase reaction biotinylated peptide biotin-Ttds-YISPLKSPYKISEG (C-terminus in amid form) was used which can be purchased e.g. from the company JERINI Peptide Technologies (Berlin, Germany).
as §1, with “For” for “Recombinant full-length His-tagged human CDK9 and CycT1, expressed in insect cells and purified by Ni-NTA affinity chromatography, were purchased from Invitrogen (Cat. No PV4131). As substrate for the kinase reaction biotinylated peptide biotin-Ttds-YISPLKSPYKISEG (C-terminus in amid form) was used which can be purchased e.g. from the company JERINI Peptide Technologies (Berlin, Germany). For”, “CDK2/CycE” for “CDK9/CycT1”, “130 ng/mL.” for “1 μg/mL.”
as §2, with “TR-FRET” for “HTRF”

Broadly, the IC50 is the point on the concentration scale where inhibition reaches its midpoint. Higher therefore signals a need for much substance.

T1 sequence (P50750 whole entry): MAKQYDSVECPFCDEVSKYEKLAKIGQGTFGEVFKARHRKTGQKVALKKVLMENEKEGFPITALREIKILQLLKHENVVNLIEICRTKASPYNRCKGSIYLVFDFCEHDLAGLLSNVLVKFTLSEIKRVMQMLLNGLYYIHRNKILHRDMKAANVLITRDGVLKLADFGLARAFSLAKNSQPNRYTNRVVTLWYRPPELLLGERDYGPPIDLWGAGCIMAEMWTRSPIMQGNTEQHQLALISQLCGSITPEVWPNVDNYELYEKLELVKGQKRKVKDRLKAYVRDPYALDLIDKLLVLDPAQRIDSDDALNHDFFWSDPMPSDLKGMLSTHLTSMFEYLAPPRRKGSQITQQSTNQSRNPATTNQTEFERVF
T1 sequence (O60563 whole entry partner): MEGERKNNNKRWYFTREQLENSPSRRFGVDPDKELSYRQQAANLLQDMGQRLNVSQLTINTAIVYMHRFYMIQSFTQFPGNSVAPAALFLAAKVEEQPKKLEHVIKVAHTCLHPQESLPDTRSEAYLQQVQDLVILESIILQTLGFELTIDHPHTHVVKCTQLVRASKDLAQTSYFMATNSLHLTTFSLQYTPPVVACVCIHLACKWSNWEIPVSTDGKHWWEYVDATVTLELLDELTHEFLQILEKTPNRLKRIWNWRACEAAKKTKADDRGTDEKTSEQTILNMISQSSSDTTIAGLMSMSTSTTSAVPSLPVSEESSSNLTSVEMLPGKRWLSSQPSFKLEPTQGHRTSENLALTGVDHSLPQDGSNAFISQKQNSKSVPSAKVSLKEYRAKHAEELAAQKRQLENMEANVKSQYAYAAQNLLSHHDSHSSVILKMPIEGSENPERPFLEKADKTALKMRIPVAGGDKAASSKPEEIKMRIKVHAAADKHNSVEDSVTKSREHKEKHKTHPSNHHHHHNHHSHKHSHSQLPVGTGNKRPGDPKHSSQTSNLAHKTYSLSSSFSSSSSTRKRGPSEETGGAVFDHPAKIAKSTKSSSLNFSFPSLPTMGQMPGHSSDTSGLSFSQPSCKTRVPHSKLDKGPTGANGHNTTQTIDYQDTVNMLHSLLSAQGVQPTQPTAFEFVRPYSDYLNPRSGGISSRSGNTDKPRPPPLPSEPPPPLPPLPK

For `CS(=O)(Cc1cc2nc(c1)OCCCOc1cc(F)ccc1-c1cc(ncc1F)N2)=NC(=O)OCCCl` (racemic) [Example 21, (rac)-2-chloroethyl [{[15,19-difluoro-3,4-dihydro-2H,11H-10,6-(azeno)-12,16-(metheno)-1,5,11,13-benzodioxadiazacyclooctadecin-8-yl]methyl}(methyl)oxido-λ^6-sulfanylidene]carbamate], at CDK9/CycT1, the half-maximal inhibitory concentration (IC50) amounted to 7.3 nM and the “Selectivity CDK9 over CDK2: IC50 (CDK2)/IC50 (CDK9)” value (“Selectivity CDK9 over CDK2: IC50” below) is 1.6. For the same compound, the midpoint of inhibition on CDK2/CycE, the IC50, lay at 11.6 nM.

On to `CS(=O)(=O)N=S(C)(=O)Cc1cc2nc(c1)OCCCOc1cc(F)ccc1-c1cc(ncc1F)N2` (racemic) [Example 22, (rac)-N-[{[15,19-difluoro-3,4-dihydro-2H,11H-10,6-(azeno)-12,16-(metheno)-1,5,11,13-benzodioxadiazacyclooctadecin-8-yl]methyl}(methyl)oxido-λ^6-sulfanylidene]methanesulfonamide], for which the IC50 against CDK9/CycT1 was 5.3 nM; at CDK2/CycE, 19.3 nM. Moreover, the “Selectivity CDK9 over CDK2: IC50” value on CDK9/CycT1 was 3.7.

Regarding `CS(=O)(Cc1cc2nc(c1)OCCCOc1cc(F)ccc1-c1cc(ncc1F)N2)=NS(=O)(=O)CCN` (racemic) [Example 23, (rac)-2-amino-N-[{[15,19-difluoro-3,4-dihydro-2H,11H-10,6-(azeno)-12,16-(metheno)-1,5,11,13-benzodioxadiazacyclooctadecin-8-yl]methyl}(methyl)oxido-λ^6-sulfanylidene]ethanesulfonamide], at CDK9/CycT1, the IC50 was 8.7 nM and the “Selectivity CDK9 over CDK2: IC50” value is 3.5. In addition, it took 30.2 nM to reach half-maximal inhibition at CDK2/CycE (IC50).

On to `CS(=O)(Cc1cc2nc(c1)OCCCOc1cc(F)ccc1-c1cc(ncc1F)N2)=NS(=O)(=O)CCN.O=C(O)C(F)(F)F` (racemic) [Example 24, (rac)-2-{[{[15,19-difluoro-3,4-dihydro-2H,11H-10,6-(azeno)-12,16-(metheno)-1,5,11,13-benzodioxadiazacyclooctadecin-8-yl]methyl}(methyl)oxido-λ^6-sulfanylidene]sulfamoyl}ethanaminium trifluoroacetate], for which, at CDK9/CycT1, 2.2 nM corresponded to half-maximal inhibition (IC50) and the “Selectivity CDK9 over CDK2: IC50” value came to 6.2. Besides, the IC50 on CDK2/CycE was found to be 13.5 nM.

As for `CS(=O)(Cc1cc2nc(c1)OCCCOc1cc(F)ccc1-c1cc(ncc1F)N2)=NC(=O)OCCN` (racemic) [Example 25, (rac)-2-aminoethyl [{[15,19-difluoro-3,4-dihydro-2H,11H-10,6-(azeno)-12,16-(metheno)-1,5,11,13-benzodioxadiazacyclooctadecin-8-yl]methyl}(methyl)oxido-λ^6-sulfanylidene]carbamate], at CDK9/CycT1, the IC50 came to 4.3 nM and the “Selectivity CDK9 over CDK2: IC50” value is reported as 1.3. For the same compound, the midpoint of inhibition against CDK2/CycE, the IC50, lay at 5.6 nM.

For the compound `CS(=N)(=O)Cc1cc2nc(c1)OCCCOc1cc(F)ccc1-c1cc(ncc1F)N2` (single isomer, unassigned; enantiomer 1) [Example 6, 15,19-Difluoro-8-[(S-methylsulfonimidoyl)methyl]-3,4-dihydro-2H,11H-10,6-(azeno)-12,16-(metheno)-1,5,11,13-benzodioxadiazacyclooctadecine; Enantiomer 1], at CDK9/CycT1, the IC50 amounted to 3 nM and the “Selectivity CDK9 over CDK2: IC50” value is listed as 0.9. In addition, the IC50 against CDK2/CycE came out at 2.7 nM.

Turning to `CS(=N)(=O)Cc1cc2nc(c1)OCCCOc1cc(F)ccc1-c1cc(ncc1F)N2` (single isomer, unassigned; enantiomer 2) [Example 7, 15,19-Difluoro-8-[(S-methylsulfonimidoyl)methyl]-3,4-dihydro-2H,11H-10,6-(azeno)-12,16-(metheno)-1,5,11,13-benzodioxadiazacyclooctadecine; Enantiomer 2], on CDK9/CycT1, the IC50 was found to be 7.3 nM and the “Selectivity CDK9 over CDK2: IC50” value was 0.3. Besides, at CDK2/CycE, the IC50 was found to be 2.4 nM.

Turning to `CSCc1cc2cc(c1)OCCCOc1cc(F)ccc1-c1nc(ncc1F)N2` [Example 2, 15,19-Difluoro-8-[(methylsulfanyl)methyl]-3,4-dihydro-2H,11H-12,16-(azeno)-10,6-(metheno)-1,5,11,13-benzodioxadiazacyclooctadecine], at CDK9/CycT1, the IC50 turned out to be 7.3 nM and the “Selectivity CDK9 over CDK2: IC50” value is 13.5. At CDK2/CycE, this compound had an IC50 of 97.8 nM.

Regarding `CSCc1cc2nc(c1)OCCCOc1cc(F)ccc1-c1cc(ncc1F)N2` [Example 3, 15,19-Difluoro-8-[(methylsulfanyl)methyl]-3,4-dihydro-2H,11H-10,6-(azeno)-12,16-(metheno)-1,5,11,13-benzodioxadiazacyclooctadecine], at CDK9/CycT1, the IC50 came to 6.8 nM and the “Selectivity CDK9 over CDK2: IC50” value stood at 6.0. On CDK2/CycE, this compound came in with an IC50 of 41 nM.

In the case of `CS(=O)(=O)Cc1cc2nc(c1)OCCCOc1cc(F)ccc1-c1cc(ncc1F)N2` [Example 8, 15,19-difluoro-8-[(methylsulfonyl)methyl]-3,4-dihydro-2H,11H-10,6-(azeno)-12,16-(metheno)-1,5,11,13-benzodioxadiazacyclooctadecine], at CDK9/CycT1, half-maximal inhibition (IC50) was put at 3.8 nM and the “Selectivity CDK9 over CDK2: IC50” value is 1.3. On CDK2/CycE, this compound came in with an IC50 of 5 nM.

`CSCc1cc2nc(c1)OCCOc1cc(F)ccc1-c1cc(ncc1F)N2` [Example 9, 14,18-Difluoro-7-[(methylsulfanyl)methyl]-2,3-dihydro-10H-9,5-(azeno)-11,15-(metheno)-1,4,10,12-benzodioxadiazacycloheptadecine]: the 50% inhibitory concentration (IC50) against CDK9/CycT1 was 18 nM; against CDK2/CycE, 18200 nM. Besides, the “Selectivity CDK9 over CDK2: IC50” value on CDK9/CycT1 is recorded as 963.7.

Take `CSCc1cc2nc(c1)OCCCCOc1cc(F)ccc1-c1cc(ncc1F)N2` [Example 12, 16,20-Difluoro-9-[(methylsulfanyl)methyl]-2,3,4,5-tetrahydro-12H-11,7-(azeno)-13,17-(metheno)-1,6,12,14-benzodioxadiazacyclononadecine]: on CDK9/CycT1, the IC50 was 16.5 nM and the “Selectivity CDK9 over CDK2: IC50” value is listed as 6.9. Further, it took 114 nM to reach half-maximal inhibition at CDK2/CycE (IC50).

As to `NCCS(=O)(=O)Cc1cc2nc(c1)OCCCOc1cc(F)ccc1-c1cc(ncc1F)N2` [Example 26, 2-({[15,19-difluoro-3,4-dihydro-2H,11H-10,6-(azeno)-12,16-(metheno)-1,5,11,13-benzodioxadiazacyclooctadecin-8-yl]methyl}sulfonyl)ethanamine], on CDK9/CycT1, the IC50 worked out at 5.9 nM and the “Selectivity CDK9 over CDK2: IC50” value came out at 1.7. In addition, on CDK2/CycE, the IC50 came out at 10 nM.

The values are drawn from patent US9963464B2, “Macrocyclic compounds” (Bayer Pharma Aktiengesellschaft, priority 2014, dated 2018).
